From patent US7838539B2, “Nicotine receptor agonists in stem cell and progenitor cell recruitment” (priority 1999, dated 2010)
Read-outs that look alike come from different tables or passages of the source.

Legend:
[1] = test system: fibrovascular growth into the disc (index of angiogenesis); assay: Disc angiogenesis system (DAS); assay type: in vivo, C57BL/6J mice; settings: for effect on nicotine-induced fibrovascular growth: oral indomethacin 20 mcg/ml or LNNA 6 mg/ml; for angiogenesis in comparison to vehicle: agent in disc pellet: bFGF 20 mcg, Del-1 0.2 M, nicotine 10^-6 M
Description: To study whether nicotine induces angiogenesis in vivo, we employed the disc angiogenesis system (DAS) (Kowalski et al. (1992) Exp Mol Pathol 56(1):1-19; Fajardo et al. (1998) Lab Invest 58:718-7244).
Preparation of the disc The DAS consisted of a disc (11 mm in diameter and 1 mm thickness) made of a polyvinyl alcohol sponge (Kanebo PVA, Rippey Co., Santa Clara, Calif.). Both sides were covered with nitrocellulose cell-impermeable filters (Millipore filters, 0.45 μm in pore diameter, Millipore, SF, Calif.) of the same diameter as the sponge disc, fixed to the sponge using Millipore glue #1 (xx70000.00, Millipore). As a result, cells (and thus vessels) could penetrate or exit only through the rim of the disc (Kowalski et al. (1992) Exp Mol Pathol 56(1):1-19; Fajardo et al. (1998) Lab Invest 58:718-7244).
In order to study the local effect of nicotine on angiogenesis, nicotine was placed in a pellet which was added directly to the disc. Briefly, a 1.5-mm core (pellet) was cut from the disc center. Both the pellets and discs were sterilized prior to assembly in a laminar flow hood. The pellet was loaded with up to 20 mcl (μl) of the nicotine solution and subsequently air-dried. We placed in the disc pellets with either vehicle (PBS, Sigma, Chemical Co., St Louis, Mo., n=5) or nicotine (10^-6 M, Aldrich Chemical Company, Milwaukee, Wis., n=5) to study the effects of locally administered nicotine. For comparison, in some cases basic fibroblast growth factor (bFGF; 20 mcg) or Del-1 protein (0.2 M) was added to the pellet, rather than nicotine. Both bFGF and Del-1 are known to induce angiogenesis. The pellet was then coated with ethylene-vinyl acetate co-polymer (Elvax, Dupont, Chemcentral Corp., Chicago, Ill.) which would permit slow release of the nicotine from the pellet into the disc. The pellet was then re-inserted into the disc before sealing the disc with the millipore filters.
To study the systemic effects of nicotine, in some cases the animals were administered nicotine in their drinking water (see below).
Implantation of the disc The mice were anesthetized with 4% chloralhydrate [intraperitoneal administration (i.p.), 0.1 cc/10 g body weight]. The flanks and posterior surface of the thorax were shaved and cleaned with saturated 70% isopropyl alcohol. A 2-cm incision was made in the skin of the flank contra-lateral to the implantation site. Blunt dissection through the subcutaneous tissue produced a channel into which the saline moistened disc was inserted. The skin was closed with 5.0 silk suture (Kowalski et al. (1992) Exp Mol Pathol 56(1):1-19; Fajardo et al. (1998) Lab Invest 58:718-7244).
Disc removal and preparation Two weeks after disc implantation, the mice were sacrificed with an overdose of 4% chloral hydrate (i.p.) and cervical dislocation. A careful incision was made next to the skin overlying the implanted disc, and the disc was gently removed from the implantation site. Attached tissue was carefully detached from the disc. After removing the disc, one filter was separated from the disc. Discs were then fixed in 10% formalin and embedded flat in paraffin. Subsequently, 5 μm sections were made in a plane through the center of the disc and parallel to the disc surface.
Quantitation of results The disc sections were stained with H&E for light microscopy and histomorphometric measurement of radial growth, and stained with toluidine blue for quantitative determination of total area of fibrovascular growth. Using a video microscope and a computer assisted digital image analysis system (NIH Image 1.59b9), the entire area of fibrovascular growth in the toluidine blue stained disc was calculated and expressed in mm^2. As described in a previous study, total fibrovascular growth area is directly proportional to the total area of the disc occupied by blood vessels (Kowalski et al. (1992) Exp Mol Pathol 56(1):1-19; Fajardo et al. (1998) Lab Invest 58:718-7244).

in vivo = settings: C57B16j, mouse, plasma, oral, 100 μg/ml in drinking water
Method: (§1) Mice (C57B16j) were given solution containing vehicle (0.4% saccharine in distilled water) or nicotine (100 μg/ml) ad libitum in their drinking water. After 6 weeks, peripheral blood, bone marrow and spleen were harvested. Cell counts were obtained in the blood, spleen and bone marrow, and bone marrow cells were isolated for fluorescent activated cell sorting (FACS). To detect hematopoietic stem cells (HSCs), fluorescently labeled antibodies directed against the following antigens were used: Lineage antigens (CD3,4,5, and 8; B220; Gr1, Mac1 and Ter119), cKit, Sca 1, and Flk2. HSCs were conventionally defined as Lin−, cKit+, Sca1+, and […]. All cells were stained with PI (propidium iodide) to separate live from dead cells.

hematopoietic stem cells = settings: 100 μg/ml in drinking water, 6 weeks
Method: as §1

[2] = test system: capillary density in hindlimb muscle
Method: Mice were anesthetized with 4% chloral hydrate [intraperitoneal administration (i.p.), 0.1 cc/10 g body weight). The medial surface of both hind limbs were shaved and then cleaned with betadine solution. A 1.5-cm longitudinal incision was performed, extending from the knee to the inguinal ligament. Through this incision, the superficial femoral artery was dissected free along its length. After the distal ends of both the external iliac and superficial femoral arteries were ligated with 7.0 (Ethicon), complete excision of the femoral artery was performed. An additional set of mice underwent sham operation. The incisions were then closed with discontinuous stitches of 5.0 silk suture (Ethicon). Ampicillin (1 mg/10 gm body weight) intraperitoneal injection was administered after surgical procedure.
Tissue Preparation. Three weeks after surgery, mice were euthanized with an overdose of 4% chloral hydrate (i.p) and cervical dislocation, and the adductor and semimembranous muscles were collected for capillary density assessment. Briefly, a longitudinal incision in the medial thigh was made to expose the entire hindlimb muscle. The adductor and semimembranous muscles were removed and immediately frozen in OCT. Subsequently, sections 5 μm were taken from the mid-region of each muscle in a transverse orientation. The sections were air dried and fixed in acetone.
Capillary Densitometry. Immunohistochemistry was performed using an alkaline phosphatase assay to identify the endothelial cells. An eosin counterstain was used to differentiate myocytes. Capillaries and myocytes were identified and counted using light microscopy (20×). For each section, four different fields were selected and the total number of capillaries and myocytes per field determined. These values were averaged to provide a determination of capillary density for each experimental limb. To ensure that value for capillary density was not overestimated due to muscle atrophy, or underestimated due to interstitial edema, capillary density was expressed as a ratio of capillaries to myocytes present in the same field.
Daily intramuscular injections of nicotine solution or vehicle were administered (50 μl) for a period of three weeks.

[3] = test system: endothelial progenitor cells (EPCs); settings: nicotine 0.1 g/L drinking water, 3 weeks after ischemia
Description: In order to further examine the role of nicotine in induction of angiogenesis, the recruitment of endothelial progenitor cells was studied.
Parabiotic mouse pairs were created to investigate the mobilization and incorporation of precursors to vessel formation in normal and ischemic conditions using a hind limb ischemia model of angiogenesis (as described above), and the effect of nicotine. The parabiotic partners were selected so that they shared all major histocompatibility antigens, and were therefore free of immunological barriers to cell migration and angiogenesis. Assaying for genetic markers unique to one animal of the pair (e.g., the Y chromosome where the pair is made up of a female mouse and a male mouse) provides for unambiguous cell tracking between the mice. The model is further optimized by the use of a second genetic marker to differential the individuals (e.g., a transgene present in one partner and not the other), thus increasing the sensitivity and the accuracy of the identification of the origin of single cells. […]

[4] = highest intramuscular dose (3.2 μg/kg daily, three weeks)

For `NC(=NCCC[C@H](N)C(=O)O)N[N+](=O)[O-]` [LNNA, L, nitro-arginine], the “effect on nicotine-induced fibrovascular growth” value ([1]; local nicotine in disc) was “blocked” and the “effect on nicotine-induced fibrovascular growth” value ([1]; systemic nicotine) was “blocked”.

With “bFGF: basic fibroblast growth factor, known to induce angiogenesis; comparison agent in the disc pellet” the “angiogenesis in comparison to vehicle” value [1] was “increased angiogenesis to the same degree”.

In the case of `CN1CCC[C@H]1c1cccnc1` [nicotine, S-3-(1-methyl-2-pyrrolidinyl)pyridine], the concentration at 6 weeks (in vivo) is reported as 0.087 µg/mL, the “appearance of mice at the time of sacrifice” value (hematopoietic stem cells) is reported as “appeared healthy” and the “cellularity of the bone marrow” value (hematopoietic stem cells) is reported as “increased”. For the same molecule, the “cellularity of the spleen” value (hematopoietic stem cells) was “increased”, the “peripheral white blood cell count” value (hematopoietic stem cells) was “elevated” and the “hematopoietic stem cells (kit/sca+ cells) in bone marrow” value (hematopoietic stem cells; FACS) was “significant increase”. For the same molecule, the “long term HSCs (self-renewing cells) in bone marrow” value (hematopoietic stem cells; FACS) was “equal increases”, the “short term HSCs in bone marrow” value (hematopoietic stem cells; FACS) was “an increase” and the “capillary density in the ischemic limb” value ([2]; 0.03 μg/kg intramuscular daily for three weeks, vehicle control 0.35) was 0.67 capillaries/myocyte. For the same molecule, the “angiogenic effect, dose dependence” value ([2]; higher intramuscular doses) was “less angiogenesis is observed”, the “angiogenesis in the ischemic limb” value [2, 4] was “angiogenesis was not increased” and the “toxicity at injection site” value [2, 4] was “some toxicity was observed, with evidence of interstitial edema and myocyte necrosis”. The “angiogenic effect, dose dependence” value ([2]; intermediate intramuscular doses) was “greatest effect”, the “angiogenic effect in non-ischemic hindlimbs” value ([2]; intramuscular nicotine in the ischemic limb, untreated non-ischemic limb) was “no angiogenic effect was detected” and the “angiogenesis in comparison to vehicle” value [1] was “increased angiogenesis to the same degree”. The “angiogenesis with systemic nicotine compared with locally administered bFGF and Del-1” value ([1]; systemic nicotine in drinking water) was “enhanced angiogenesis to a much greater degree”, the “angiogenic effect of systemic compared with local nicotine administration” value ([1]; systemic versus local nicotine) was “greater than local nicotine administration” and the number of vessels [3] was “significant increase”. The “percentage of vessels that incorporated EPC” value ([3]; saline group 1.6%, P<0.001) was 7.3%.

For `COc1ccc2c(c1)c(CC(=O)O)c(C)n2C(=O)c1ccc(Cl)cc1` [indomethacin], the “effect on nicotine-induced fibrovascular growth” value ([1]; local nicotine in disc) was “blocked” and the “effect on nicotine-induced fibrovascular growth” value ([1]; systemic nicotine) was “blocked”.

B1: Del1: Del-1 protein, known to induce angiogenesis; comparison agent in the disc pellet (protein, UniProt O43854 24-480, looked up)
EGF-like repeat and discoidin …: DICDPNPCENGGICLPGLADGSFSCECPDGFTDPNCSSVVEVASDEEEPTSAGPCTPNPCHNGGTCEISEAYRGDTFIGYVCKCPRGFNGIHCQHNINECEVEPCKNGGICTDLVANYSCECPGEFMGRNCQYKCSGPLGIEGGIISNQQITASSTHRALFGLQKWYPYYARLNKKGLINAWTAAENDRWPWIQINLQRKMRVTGVITQGAKRIGSPEYIKSYKIAYSNDGKTWAMYKVKGTNEDMVFRGNIDNNTPYANSFTPPIKAQYVRLYPQVCRRHCTLRMELLGCELSGCSEPLGMKSGHIQDYQITASSIFRTLNMDMFTWEPRKARLDKQGKVNAWTSGHNDQSQWLQVDLLVPTKVTGIITQGAKDFGHVQFVGSYKLAYSNDGEHWTVYQDEKQRKDKVFQGNFDNDTHRKNVIDPPIYARHIRILPWSWYGRITLRSELLGCTEEE
In the case of B1, the “angiogenesis in comparison to vehicle” value [1] is reported as “increased angiogenesis to the same degree”.
